# Measured values: US5703056A, “Non-invasive imaging of gene transfer” (priority 1995, dated 1997)
# Read-outs that look alike come from different tables or passages of the source.
# Legend:
# [1] = Calculated permeability surface area product (PS) of the cerebral capillaries; set-up: unit not given here
# Text: Passage of the nucleosides across the blood brain barrier (BBB) is an important factor to consider in the design of radiolabelled 2'-fluoro-nucleoside analogues for imaging HSV1-TK expression in the brain. […] It is known that brain capillary permeability for many compounds is related to their octanol/water partition coefficient (P) and molecular weight. [Levin, V. N. J. Med. Chem., 23: 682-4, 1980] Several authors have described a relationship between the brain capillary permeability and log P or log P·Dm, where Dm is a measure of diffusibility. […] [Dischino, D. D., Welch, M. J., Kilbourn, M. N., and Raichle, M. E., J. Nucl. Med., 24: 1030-8, 1983] […] Fenstermacher, J. D. Drug transfer across the blood brain barrier. In: Topics in Pharmaceutical Sciences. Ed.: Breimer, D. D., and Speiser, P. Amsterdam: Elsevier, pp. 143-54, 1983; Fenstermacher, J. D., and Rapoport, S. I. In: Handbook of Physiology. The Cardiovascular System. Microcirculation. Bethesda, Md.: Am. Physiol. Soc., sect. 2, Vol. IV, pt. 2, chapt. 21, p. 969-1000, 1984; Fenstermacher, J. D. In: Implications of Blood-Brain Barrier and Its Manipulation. Basic Science Aspects. Ed. by Neuwelt, E., New York: Plenum, Vol. 1, Chapt. 6, pp. 132-55, 1988]
# HSV1-TK [2] = target: T1, HSV1-TK (Human alphaherpesvirus 1 strain 17, UniProt P0DTH5); test: Accumulation of radiolabelled marker substrates in RG2TK+ transduced and RG2 wild-type cells, normalized to TdR; format: cell-based, herpes simplex virus
# T1 sequence (P0DTH5 whole entry): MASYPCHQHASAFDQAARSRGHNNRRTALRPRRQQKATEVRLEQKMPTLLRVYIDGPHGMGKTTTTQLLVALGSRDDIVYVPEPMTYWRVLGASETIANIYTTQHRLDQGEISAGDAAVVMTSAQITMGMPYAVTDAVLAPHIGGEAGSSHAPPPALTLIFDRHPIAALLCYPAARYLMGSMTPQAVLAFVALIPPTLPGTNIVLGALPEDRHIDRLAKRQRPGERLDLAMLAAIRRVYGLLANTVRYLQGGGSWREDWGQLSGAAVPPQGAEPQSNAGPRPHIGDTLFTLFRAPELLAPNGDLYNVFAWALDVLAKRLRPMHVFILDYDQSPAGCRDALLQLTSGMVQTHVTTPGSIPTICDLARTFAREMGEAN
# Protocol: Source of radiolabelled "marker substrates". […] No carrier-added 5-[^123 I]-deoxyuridine (IUdR) was prepared by reacting 2-deoxyuridine (UdR) with carrier-free ^123 I-labelled sodium iodide in an iodogen coated reaction vial.
# Comparison of "marker substrates" for identifying HSV1-tk gene expression in tissue culture. […] Each of these substrates were developed for or used as an anti-viral agent; they are phosphorylated by HSV1-TK and can be radiolabelled for noninvasive imaging.
# Wild-type (nontransduced) RG2 cells were studied as a reference control. […] The cells were dislodged from the Petri dishes with a soft scraper, poured into 15 ml conical tubes, centrifuged and the medium aspirated. The tubes were cut to facilitate removing cells; they were blotted, placed in pre-weighed vials, weighed and prepared for counting. Samples were assayed for ^3 H- and ^14 C-radioactivity using a Packard B1600 TriCarb beta spectrometer using dual-channel and external standard splash and quench correction techniques. The medium was also counted before and following incubation. The data was expressed as a harvested cell-to-medium concentration ratio (dpm/g cells.div.dpm/ml medium).
# (§1) Data analysis. […] These two related measures are useful to evaluate the intensity of the images (e.g., high "sensitivity") and the ability to differentiate between HSV1-TK and endogenous-TK in the images (e.g., high "selectivity"). The "selectivity" measure is not interpreted as a relative sensitivity (i.e., a value of 1 indicating equal sensitivity) of the substrate to HSV1-TK vs. endogenous-TK. […] They are intended for the direct comparison of substrates only.
# HSV1-TK [3] = target: T1, HSV1-TK; test: Single 120 minute paired accumulation of FIAU and IUdR by RG2TK+ and RG2 cells; format: cell-based, herpes simplex virus; details: Data from FIG. 6A
# Protocol: The processing of cells and incubation medium was the same as that described above. A portion of the harvested cells was also processed for acid-insoluble (10% TCA) radioactivity. Decay corrected ^123 I-radioactivity was measured in a Packard AutoGamma 5550 Spectrometer. Samples were stored for 1 week to allow for ^123 I decay (12 half lives), and recounted afterwards in the Packard B1600 TriCarb beta spectrometer to determine ^3 H- and ^14 C-radioactivity.
# All radioactivity measurements were expressed as a percent of administered dose per gram of tissue or per unit volume of fluid as described above.
# as §1
# [4] = Quantitative autoradiography of 2-[14C]-FIAU in i.c. RG2TK+ and RG2 tumors; format: in vivo, rat; details: rat, iv, 50 uCi
# Protocol: (§2) Two rats were prepared with i.c. RG2TK+ and RG2 tumors as described above. […] The brain was rapidly extracted and frozen in preparation for cryosectioning and quantitative autoradiography (QAR). [Blasberg, Seminars in Neurology] […] To convert the x-ray images to tissue radioactivity (nCi/g), the optical density of the standards was measured by computerized image analysis. A standard curve that relates mean optical density and tissue radioactivity was generated for each film. […]
# RG2TK+ and RG2 tumors = test: as above; format: in vivo, rat; details: for Sensitivity* Δ(substrate % dose/g)/Δ(HSV1TK mRNA/S28 RNA IOD): autoradiographic data
# Protocol: as §2
# [5] = cited from earlier work
smiles,measurement,setting,value
"O=c1[nH]c(=O)n([C@@H]2O[C@H](CO)[C@@H](O)[C@@H]2F)cc1I [FIAU, 2'-fluoro-5-iodo-1-β-D-arabinofuranosyl-uracil]",PS*,[1]; calculated from measured log P and MW: log(PS)=5.2+log(P·Dm),0.59
same,PS+,[1]; calculated from published log P and MW: log(PS)=5.2+log(P·Dm),0.59
same,Sensitivity* Δ(substrate/TdR)/Δ(HSV1TK mRNA/S28 RNA IOD),HSV1-TK [2]; Data from FIG. 5,0.0090
same,Sensitivity* Δ(substrate/TdR)/Δ(HSV1TK mRNA/S28 RNA IOD),HSV1-TK [2]; Data from FIG. 7B (different RG2TK cell lines),0.0086
same,Sensitivity* Δ(substrate/TdR)/Δ(HSV1TK mRNA/S28 RNA IOD),HSV1-TK [3],0.0105
same,tissue uptake at 24 h,"[4]; brain, 24 h, level of detection on the autoradiograms, read-out: adjacent brain activity",< 0.005 %ID/g
same,tissue uptake at 24 h,"[4]; i.c. rg2tk+ tumor, i.c. RG2TK+ tumor, 24 h, read-out: peak activity",0.43 %ID/g
same,tissue uptake at 24 h,"[4]; intracerebral tumor, i.c. RG2TK+ tumor, 24 h after 50 uCi 2-[14C]-FIAU i.v., read-out: mean activity",0.18 ± 0.14 %ID/g
same,difference in radioactivity localized to transduced compared to non-transduced tumor,"RG2TK+ and RG2 tumors; 4 hours after tracer, RG2TK#16 vs RG2 i.c., non-rinsed autoradiogram",only a small difference
same,Sensitivity* Δ(substrate % dose/g)/Δ(HSV1TK mRNA/S28 RNA IOD),RG2TK+ and RG2 tumors; RG2TK#16/RG2 i.c. tumors,0.0058
same,Sensitivity* Δ(substrate % dose/g)/Δ(HSV1TK mRNA/S28 RNA IOD),RG2TK+ and RG2 tumors; RG2TK+/RG2 i.c. tumors,0.0039
same,peak activity,"RG2TK+ and RG2 tumors; i.c. RG2TK+ tumor, 24 h",0.43 % dose/g
same,organ damage in clinical trial,"[5]; human, in vivo",severe liver and pancreatic damage
same,dose-limiting toxicity,[5]; pharmacologic doses,"dose-limiting gastrointestinal, hematologic and neurotoxicity"
